The values that follow come from article PMC6153520, “Proteasome inhibition and mechanism of resistance to a synthetic, library-based hexapeptide” (Investigational New Drugs, 2018).

Each structure is given as a SMILES string. Where a SMILES comes first, the peptide text is derived from it. [ ]: non-standard residue; d: D form. The star is where a group is joined. His(τ-Bzl) = N[C@@H](Cc1cn(Cc2ccccc2)cn1)C(=O)O; Nle = CCCC[C@H](N)C(=O)O; NHBn = c1ccc(CN*)cc1; Bn = c1ccc(C*)cc1; OtBu = CC(C)(C)O*; tBu = CC(C)(C)*

Data set [1] concerns the target T1, proteasome β5 subunit (Mus musculus, UniProt O55234).
T1 construct: Activity probing of constitutive and immunoproteasome β-subunits in EL4 cells; endogenous in cells; host or cells: EL4 mouse thymoma cells
Put plainly: Proteasome affinity labelling in EL4 cells. Type of data set: cell-based. The following applies: EL4 cells pre-exposed for 2–24 h. The method, then:
Proteasome activity profiling assays were performed as described using a close analog of the BodipyFL probe. Briefly, mouse EL4 thymoma cells were incubated at 37 °C for 2 or 24 h with increasing concentrations of 4A6, followed by a 1 h chase with 500 nM probe. […] Cells were harvested and lysed for 30 min in NP40 lysis buffer (50 mM Tris, pH 7.4, 150 mM NaCl, 1% NP40) at 4°C. The Bradford assay was used to measure protein content. Proteins were denatured by boiling in reducing sample buffer and analyzed by 12% SDS-PAGE using NuPAGE pre-cast gels (Invitrogen). Gels were then scanned for fluorescence emission using a ProXPRESS 2D Proteomic imaging system (Perkin Elmer). Images were analyzed using Totallab analysis software (Nonlinear Dynamics, Newcastle upon Tyne, UK). Sypro staining served as a loading control.

Data set [2] deals with THP1/WT cells. Put plainly: Western blot, accumulation of ubiquitinated proteins. Type of data set: cell-based, human. The following applies: 24 h exposure. As for the experimental part: (§1) Western blot analysis to determine protein levels of (i) β1, β2 and β5 proteasome subunits and (ii) the accumulation of ubiquitinated proteins after treatment with 4A6 was performed essentially as described previously. Cells were harvested in the mid-log phase of growth and washed 3 times with ice-cold buffered saline pH 7.4. Total cell lysates of 5 × 10^6 cells were prepared by resuspension in 500 μl lysis buffer containing: 50 mM Tris-HCl (pH 7.6), 5 mM dithiotreitol, 20 μl PIC (Protease Inhibitor Cocktail; 1 tablet/ml H2O), 20% glycerol and 0.5% NP-40. The suspension was sonicated (MSE sonicator, amplitude 7, for 3 × 5 s with 20 s time intervals at 4 °C) and centrifuged in an Eppendorf micro centrifuge (5 min, 12,000 rpm, 4 °C). Protein content of the supernatant was determined by the Bio-Rad protein assay. 20–30 μg of total cell lysates were fractionated on a 10% polyacrylamide gel containing SDS and transferred onto a PVDF membrane. The membranes were pre-incubated overnight at 4 °C in blocking buffer (5% Bio-Rad Blocker in TBS-T; 10 mM Tris-HCl, pH 8.0, 0.15 M NaCl, 0.1% Tween-20) to prevent non-specific antibody binding. After blocking, the membranes were incubated for 1 h at room temperature with primary antibodies for proteasome subunit β1 (1:1000, PW8140), β2 (1:1000, PW8145) and β5 (1:1000, PW8895) or ubiquitin (1:1000, Santa-Cruz, SC-8017). An antibody to α-tubulin was used (1:1000, Santa Cruz, sc-8035) to check and normalize for any loading differences. After 3 washing steps with TBS-T, the membranes were incubated for 1 h with HRP-labelled donkey-anti-rabbit (1:6000, Amersham, UK) or goat-anti-mouse (1:6000, Dako, Glostrup, Denmark) as secondary antibody. Detection of antibody binding was followed by chemoluminescence using Supersignal (Pierce Biotechnology, Rockford, USA) according to the manufacturers’ instructions. […] The signal intensity was determined densitometrically using Quantity One software (Bio-Rad) and was expressed relative to the intensity of the α-tubulin signal.

Data set [3] concerns bortezomib-resistant cells (THP1/BTZ200). The description is as above. Type of data set: cell-based, human. The note with it: 24 h, same concentrations as in THP1/WT. As for the experimental part: as §1
Data set [4] relates to proteasome β1 subunit. Put plainly: Western blot, proteasome subunit expression. It is filed as cell-based, human. The following applies: 0.1–10 μM, 24 h; THP1/WT, THP1/BTZ100, THP1/BTZ (−100). The method, then: as §1
Data set [5] deals with proteasome β5 subunit. The data set is described as follows: Western blot, proteasome subunit expression. It is filed as cell-based, human. The note with it: 10 μM 4A6, 24 h; THP1/WT, THP1/BTZ100 and THP1/BTZ (−100); densitometry. The method, then: as §1
For orientation: Immunoblotting shows a protein as a band on a membrane.

The subject of data set [6] is proteasome β2 subunit. Put plainly: Western blot, proteasome subunit expression. It is filed as cell-based, human. The note with it: 0.1–10 μM, 24 h; THP1/WT, THP1/BTZ100, THP1/BTZ (−100). As for the experimental part: as §1
Data set [7] relates to caspase-like proteasome activity. Put plainly: Proteasome activity in THP1 cell extracts (fluorogenic substrate). It is filed as biochemical, human. The following applies: 1–100 μM, 1 h exposure. As for the experimental part: (§2) Chymotrypsin-like, trypsin-like and caspase-like proteolytic activities of the proteasome were determined in freshly prepared cell lysates as described previously. Five million untreated or bortezomib-exposed THP1 cells were washed 3 times with ice-cold PBS and pelleted by centrifugation (5 min, 12,000 RPM, 4 °C). Cell pellets were then resuspended in an ATP-containing lysis buffer; 10 mM Tris-HCl buffer (pH 7.8) containing 5 mM ATP, 0.5 mM DTT and 5 mM MgCl2, and kept on ice for 10 min. For complete lysis, cells were sonicated (MSE sonicator, amplitude 7, for 3 × 5 s with 20 s time intervals at 4 °C) followed by centrifugation (5 min, 12,000 RPM, 4 °C) to remove cell debris. The supernatant was collected and protein concentration was determined using the Bio-Rad protein assay. […] The release of amc (7-amino-4-methyl-coumarin) was monitored online over a 2-h time period at 37 °C with 5 min intervals. Fluorescence was measured on a Tecan SpectraFluor apparatus (Giessen, The Netherlands) using excitation and emission wavelengths of 360 and 465 nm, respectively. Proteolytic activity was calculated from the slopes of the linear portion of the curves. All results were expressed as percentage relative to untreated THP1/WT cells (100%). […]

In data set [8] the test system is trypsin-like proteasome activity. The description is as above. It is filed as biochemical, human. The note with it: 1–100 μM, 1 h exposure. As for the experimental part:
as §2

Data set [9] concerns P-glycoprotein (Pgp/ABCB1). Details: method as in PMID 11289130. The note with it: ref [32]; cited from earlier work.

`CCCC[C@H](NC(=O)[C@@H](NC(=O)[C@H](Cc1cn(Cc2ccccc2)cn1)NC(=O)[C@@H](NC(C)=O)[C@@H](C)OC(C)(C)C)[C@@H](C)OCc1ccccc1)C(=O)N[C@@H](CCC(=O)OC(C)(C)C)C(=O)NCC(=O)NCc1ccccc1` [4A6, Ac-Thr(tBu)-His(Bzl)-Thr(Bzl)-Nle-Glu(OtBu)-Gly-Bza] (Ac-T(tBu)[His(τ-Bzl)]T(Bn)[Nle]E(OtBu)G-NHBn): the “concentration giving complete inhibition of the β5 subunit” value in data set [1] was more than 5 µM. Besides, in data set [2], the “accumulation of ubiquitinated proteins” value was “marked accumulation of ubiquitinated proteins”. Also, the “accumulation of ubiquitinated proteins” value in [3] was “did not provoke any accumulation of ubiquitinated proteins”. Besides, the “effect on expression of the β1 proteasome subunit” value in data set [4] is “No significant effects”. Further, the “increase in β5 subunit induction vs drug-free controls” value in [5] is reported as 3–5 fold. Also, the “effect on expression of the β2 proteasome subunit” value in data set [6] was “No significant effects”. In addition, the “inhibitory effect on caspase-like activity” value in [7] is “no inhibitory effect”. For the same molecule, in [8], the “inhibitory effect on trypsin-like activity” value is recorded as “no inhibitory effect”. For the same molecule, in data set [9], the “ability to reverse efflux pump MDR (ABCB1)” value is listed as “lacked the ability to reverse efflux pump MDR” and the “substrate of MDR efflux transporter ABCB1” value is reported as “substrate”.
